# Test results from patent US20220047551A1, “PHARMACEUTICAL AGENT FOR TREATING AMYOTROPHIC LATERAL SCLEROSIS OR SUPPRESSING DISEASE PROGRESS THEREOF” (Mitsubishi Tanabe Pharma Corporation, priority 2011, published 2022).
# System: patients with amyotrophic lateral sclerosis
# Test: Placebo-controlled clinical test in amyotrophic lateral sclerosis patients, measured in terms of ALSFRS-R
# Assay type: in vivo, human
# Protocol: 199 patients with amyotrophic lateral sclerosis who complied with the following selection standards were divided into an actual drug administration group consisting of 100 patients and a placebo administration group of 99 patients:
# With regard to the actual drug administration group, two ampules of “Radicut (registered trademark), Injection 30 mg” (containing 30 mg of 3-methyl-1-phenyl-2-pyrazolin-5-one; manufactured and distributed by Mitsubishi Tanabe Pharma Corporation) were diluted with a suitable amount of normal saline before the use, and the thus prepared solution was intravenously administered to the patients by drops over 60 minutes once a day. On the other hand, with regard to the placebo administration group, only normal saline was administered to the patients in the same manner as for the actual drug administration group.
# The administration period was divided into first to sixth courses. The first course consisted of a continuous 14-day administration period and the subsequent drug holiday period for 14 days in which drug administration was not carried out. In the second to sixth courses, 1 set consisting of an administration period for a total of 10 out of 14 days and the subsequent 14-day drug holiday period was repeated 5 times.
# Before initiation of the drug administration in the first course, and upon termination of the drug holiday periods in the first, second, third, fourth, fifth and sixth courses, the 199 patients were measured in terms of ALSFRS-R. Among the 199 patients, some patients were dropped out from the test during a period after initiation of the administration in the fourth course and before termination of the drug holiday period in the sixth course. In the case of these drop-out patients, the ALSFRS-R score measured immediately before dropping out from the test was considered to be the score upon termination of the drug holiday period in the sixth course, and it was used in the analysis.
# A difference between the ALSFRS-R scores between before initiation of the administration in the first course and upon termination of the drug holiday period in the sixth course is shown below.
# Subsequently, the 199 patients were divided into the following (1) to (7):
# (1) patients who were determined to be “Definite ALS” or “Probable ALS” according to the revised El Escorial (Airlie House) diagnostic criteria; (2) patient who were determined to be “Definite ALS” according to the revised El Escorial (Airlie House) diagnostic criteria; (3) patients who scored two or more points from all items constituting the ALSFRS-R; (4) patients whose % FVC was 80% or more; (5) patients who scored two or more points from all items constituting the ALSFRS-R and whose % FVC was 80% or more; (6) patients who were determined to be “Definite ALS” or “Probable ALS” according to the revised El Escorial (Airlie House) diagnostic criteria, scored two or more points from all items constituting the ALSFRS-R, and whose % FVC was 80% or more; and (7) patients who were determined to be “Definite ALS” according to the revised El Escorial (Airlie House) diagnostic criteria, scored two or more points from all items constituting the ALSFRS-R, and whose % FVC was 80% or more. With regard to the thus specified patients (1) to (7), differences in the ALSFRS-R scores between before the administration in the first course and upon termination of the drug holiday period in the sixth course are shown below.
smiles,measurement,setting,value
"CC1=NN(c2ccccc2)C(=O)C1 [Actual drug, 3-methyl-1-phenyl-2-pyrazolin-5-one]",Between-group difference in ALSFRS-R score change (actual drug vs placebo),(1) Definite ALS or Probable ALS,1.2 points
same,Before-and-after difference in ALSFRS-R score,"(1) Definite ALS or Probable ALS, before first course vs end of sixth course",−5.7 points
same,Between-group difference in ALSFRS-R score change (actual drug vs placebo),(2) Definite ALS,2.0 points
same,Before-and-after difference in ALSFRS-R score,"(2) Definite ALS, before first course vs end of sixth course",−6.7 points
same,Between-group difference in ALSFRS-R score change (actual drug vs placebo),(3) two or more points from all items constituting ALSFRS-R,1.6 points
same,Before-and-after difference in ALSFRS-R score,"(3) two or more points from all items constituting ALSFRS-R, before first course vs end of sixth course",−4.7 points
same,Between-group difference in ALSFRS-R score change (actual drug vs placebo),(4) 80% or more % FVC,1.3 points
same,Before-and-after difference in ALSFRS-R score,"(4) 80% or more % FVC, before first course vs end of sixth course",−3.9 points
same,Between-group difference in ALSFRS-R score change (actual drug vs placebo),(5) two or more points from all ALSFRS-R items and 80% or more % FVC,2.5 points
same,Before-and-after difference in ALSFRS-R score,"(5) two or more points from all ALSFRS-R items and 80% or more % FVC, before first course vs end of sixth course",−3.4 points
same,Between-group difference in ALSFRS-R score change (actual drug vs placebo),"(6) Definite ALS or Probable ALS, two or more points from all ALSFRS-R items, and 80% or more % FVC",3.7 points
same,Before-and-after difference in ALSFRS-R score,"(6) Definite ALS or Probable ALS, two or more points from all ALSFRS-R items, and 80% or more % FVC, before first course vs end of sixth course",−3.8 points
same,Between-group difference in ALSFRS-R score change (actual drug vs placebo),"(7) Definite ALS, two or more points from all ALSFRS-R items, and 80% or more % FVC",6.4 points
same,Before-and-after difference in ALSFRS-R score,"(7) Definite ALS, two or more points from all ALSFRS-R items, and 80% or more % FVC, before first course vs end of sixth course",−4.6 points
same,Between-group difference in ALSFRS-R score change (actual drug vs placebo),all patients (not specified),0.7 points
same,Before-and-after difference in ALSFRS-R score,"all patients (not specified), before first-course administration vs end of sixth-course drug holiday, 60 mg i.v. drops over 60 min once a day",−5.3 points
same,Comparison with the placebo administration group (ALSFRS-R difference),patient groups (5) to (7),significant difference
same,Reduction of the risk of death or tracheostomy,"specific patients (1) to (7), extrapolated from 7% risk per 1 point ALSFRS-R (Neurology 2005; 64: 38-43)",≥ 3.5%
